Laboratory results: the NIST ThermoML archive (doi:10.1021/je900938b)

Legend:
[1] = 101.3 kPa, Liquid; for mass density: Pycnometric method
[2] = xn = mol fraction of the nth substance listed; conditions: 101 kPa, Liquid, x2 = 0; for mass density: Pycnometric method

OCCO [1,2-ethanediol]
[1]
Conditions | mass density [kg/m3] | viscosity [mPa·s]
298.15 K | – | 17.4
303.15 K | 1107.1 | 13.8
308.15 K | 1103.5 | 11.5
313.15 K | 1100.3 | 9.42
318.15 K | – | 8.1
323.15 K | 1093.5 | 6.95
328.15 K | – | 5.96
333.15 K | 1085.6 | 5.22
338.15 K | 1082.1 | 4.53

OCCO [1,2-ethanediol] + OCC(O)CO
[2]
Conditions | mass density [kg/m3] | viscosity [mPa·s]
298.15 K | – | 17.4
303.15 K | 1107.1 | 13.8
308.15 K | 1103.5 | 11.5
313.15 K | 1100.3 | 9.42
318.15 K | – | 8.1
323.15 K | 1093.5 | 6.95
328.15 K | – | 5.96
333.15 K | 1085.6 | 5.22
338.15 K | 1082.1 | 4.53

OCC(O)CO [glycerol]
[1]
Conditions | mass density [kg/m3] | viscosity [mPa·s]
298.15 K | 1257.8 | 943.8
303.15 K | 1254.7 | 628.9
308.15 K | 1252.2 | 431.9
313.15 K | 1249.4 | 295.9
318.15 K | 1245.8 | 185.8
323.15 K | 1242.3 | 151.2
328.15 K | 1239.3 | 108.4
333.15 K | 1236.1 | 84.8
338.15 K | 1232.8 | 62.2
